Patent US11267825B2 (AICURIS GMBH & CO. KG, priority 2017, dated 2022)

Key:
[1] = target: HBV core protein (UniProt P03146); assay type: biochemical; conditions: read-out: Assembly Activity (IC50); BODIPY-FL labelled core protein, assembly started with NaCl, read after 6 min
How it was run: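 Compounds tested at 8 concentrations in 0.5-log steps from 100, 31.6 or 10 μM against 1.0–2.0 μM BODIPY-FL-labelled Cys150 core dimers (residues 1–149), 50 mM HEPES pH 7.5. NaCl ([…] final) triggered assembly; quenching read at 6 min, 477/525 nm, with 2.5 M and 0 M NaCl as controls; EC50 by nonlinear fit.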

[2] = test system: HBV; test: Determination of HBV DNA from the supernatants of HepAD38 cells (anti-HBV activity); assay type: cell-based, hepatitis B virus; conditions: Hepatitis B virus, 144 h; HBV DNA in HepAD38 supernatant at day 6; read-out: Cell Activity (EC50)
How it was run: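 EC50 values were obtained by non-linear regression of HBV DNA copy numbers measured by qPCR against pCH-9/3091 plasmid standards. The DNA came from filtered supernatants collected on day 6. Before that, tetracycline-withdrawn HepAD38 cells had been exposed to serial half-log compound dilutions, with tetracycline-treated cells as the non-producing control.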

Chain of HBV core protein (P03146 whole entry, looked up, the tested form may be a part): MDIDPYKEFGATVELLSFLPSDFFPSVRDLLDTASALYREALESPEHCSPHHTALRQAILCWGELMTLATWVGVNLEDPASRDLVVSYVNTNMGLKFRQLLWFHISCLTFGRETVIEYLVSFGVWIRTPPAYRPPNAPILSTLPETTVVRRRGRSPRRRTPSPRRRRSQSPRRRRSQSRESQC

SMILES | IC50 [1] | EC50 [2]
O=C(c1cc2ccc(Br)cc2[nH]1)N1CCc2nc(NCC3CCOC3)sc2C1 (centres unmarked) [Example 113, 5-(6-bromo-1H-indole-2-carbonyl)-N-[(oxolan-3-yl)methyl]-4H,5H,6H,7H-[1,3]thiazolo[5,4-c]pyridin-2-amine] | < 5 µM | < 1 µM
Nc1nc2c(s1)CN(C(=O)c1cc3c(Br)c(F)ccc3[nH]1)CC2 [Example 130, 5-(4-bromo-5-fluoro-1H-indole-2-carbonyl)-4H,5H,6H,7H-[1,3]thiazolo[5,4-c]pyridin-2-amine] | < 100 µM | 1 to 10 µM
O=C(c1cc2ccccc2[nH]1)N1CCc2nc(NCC3CCCCO3)sc2C1 (centres unmarked) [Example 35, 5-(1H-indole-2-carbonyl)-N-[(oxan-2-yl)methyl]-4H,5H,6H,7H-[1,3]thiazolo[5,4-c]pyridin-2-amine] | 5 to 10 µM | < 1 µM
CS(=O)(=O)CCNc1nc2c(s1)CN(C(=O)c1cc3ccccc3[nH]1)CC2 [Example 89, 5-(1H-indole-2-carbonyl)-N-(2-methanesulfonylethyl)-4H,5H,6H,7H-[1,3]thiazolo[5,4-c]pyridin-2-amine] | < 5 µM | < 1 µM
O=C(c1cc2ccccc2[nH]1)N1CCc2nc(NC3(CO)CCC3)sc2C1 [Example 48, (1-{[5-(1H-indole-2-carbonyl)-4H,5H,6H,7H-[1,3]thiazolo[5,4-c]pyridin-2-yl]amino}cyclobutyl)methanol] | < 5 µM | < 1 µM
O=C(c1cc2ccccc2[nH]1)N1CCc2nc(NCC(O)CO)sc2C1 (centres unmarked) [Example 208, 3-{[5-(1H-indole-2-carbonyl)-4H,5H,6H,7H-[1,3]thiazolo[5,4-c]pyridin-2-yl]amino}propane-1,2-diol] | < 5 µM | < 1 µM
Nc1nc2c(s1)CN(C(=O)c1cc3c(Cl)cc(Cl)cc3[nH]1)CC2 [Example 168, 5-(4,6-dichloro-1H-indole-2-carbonyl)-4H,5H,6H,7H-[1,3]thiazolo[5,4-c]pyridin-2-amine] | < 5 µM | < 1 µM
Nc1nc2c(s1)CN(C(=O)c1cc3cccc(OC(F)(F)F)c3[nH]1)CC2 [Example 174, 5-(7-(trifluoromethoxy)-1H-indole-2-carbonyl)-4H,5H,6H,7H-[1,3]thiazolo[5,4-c]pyridin-2-amine] | < 5 µM | 1 to 10 µM
N#Cc1cc(F)cc2[nH]c(C(=O)N3CCc4nc(NCC5CCOC5)sc4C3)cc12 (centres unmarked) [Example 103, 5-(4-cyano-6-fluoro-1H-indole-2-carbonyl)-N-[(oxolan-3-yl)methyl]-4H,5H,6H,7H-[1,3]thiazolo[5,4-c]pyridin-2-amine] | 5 to 10 µM | < 1 µM
O=C(Nc1nc2c(s1)CN(C(=O)c1cc3c(Cl)cc(F)cc3[nH]1)CC2)C1CCOCC1 [Example 320, N-[5-(4-chloro-6-fluoro-1H-indole-2-carbonyl)-4H,5H,6H,7H-[1,3]thiazolo[5,4-c]pyridin-2-yl]oxane-4-carboxamide] | 5 to 10 µM | < 1 µM
COCC(C)Nc1nc2c(s1)CN(C(=O)c1cc3ccccc3[nH]1)CC2 (centres unmarked) [Example 70, 5-(1H-indole-2-carbonyl)-N-(1-methoxypropan-2-yl)-4H,5H,6H,7H-[1,3]thiazolo[5,4-c]pyridin-2-amine] | < 5 µM | < 1 µM
CCOCC(=O)Nc1nc2c(s1)CN(C(=O)c1cc3ccccc3[nH]1)CC2 [Example 4, 2-ethoxy-N-[5-(1H-indole-2-carbonyl)-4H,5H,6H,7H-[1,3]thiazolo[5,4-c]pyridin-2-yl]acetamide] | < 5 µM | < 1 µM
O=C(c1cc2ccc(Cl)cc2[nH]1)N1CCc2nc(N[C@H]3CC[C@@H](O)CC3)sc2C1 [Example 301, (1s,4s)-4-{[5-(6-chloro-1H-indole-2-carbonyl)-4H,5H,6H,7H-[1,3]thiazolo[5,4-c]pyridin-2-yl]amino}cyclohexan-1-ol] | < 5 µM | < 1 µM
